Test results reported in patent USRE47193E1, “Selectively substituted quinoline compounds” (EISAI R&D MANAGEMENT CO., LTD., priority 2013, dated 2019).

Key:
[1] = tested on: Human TLR7/8; experiment: Human PBMC cell-based assay, TLR7/8 stimulus (RNA-Ig), cytokine ELISA; conditions: primary human PBMC assay, TLR7/8 potency; ligand not given; read-out: Human PBMCs IC50
Protocol: Human PBMC Cell-Based Assay. Human peripheral blood mononuclear cells (PBMC) were isolated from freshly-drawn heparinized (10 USP units/ml, Hospira, Lakeforest, Ill.) healthy donor whole blood by density gradient (Histopaque® 1077, Sigma, Inc., St. Louis, Mo.). Briefly, 25 ml blood was diluted with 15 ml PBS (without Ca^2+, Mg^2+) in a 50 ml conical tube, and 12 ml Histopaque was underlaid using a spinal needle. Tubes were centrifuged for 45 minutes at 1200 rpm (350×g), and PBMC were collected from the buffy coat. Cells were then washed twice in PBS, and red blood cells were lysed by suspension in 5 ml ammonium chloride solution (1× Red Blood Cell Lysis Buffer, eBioscience) for 5 minutes at room temperature. After a final wash in PBS, PBMC were resuspended at a final concentration of 2×10^6/ml in RPMI-1640 media with L-glutamine (Invitrogen) and supplemented with 25 mM HEPES (Mediatech, Inc, Manassas Va.), 10% fetal bovine serum (HyClone, Logan, Utah), and Penicillin-Streptomycin-Glutamine (Mediatech) and plated at 100 ul/well (2×10^5 cells/well) in tissue culture treated 96-well plates (Falcon).
Antagonist compounds solubilized and serial diluted in 100% DMSO were added in triplicate to cells to yield a final concentration of 0.1% DMSO (v/v). Hydroxychloroquine (Acros Organics) solubilized and serial diluted in PBS was added in triplicate to cells. PBMC were incubated with antagonist compounds or HCQ for 30 minutes at 37° C., 5% CO2 before adding various TLR agonist reagents in 100 ul complete media per well as follows (final concentrations indicated): R848 (Resiquimod; GLSynthesis, Worcester, Mass.) at 1 uM for TLR7 and TLR8, LPS (Sigma) at 10 ng/ml for TLR4, and CpG-2216 (InvivoGen) at 5 ug/ml for TLR9. To prepare a TLR7/8 agonist that mimics RNA-containing auto-antibody immune complexes in lupus patients, a 26-mer RNA with a sequence derived from human U1 snRNA stem loop IV [(sequence: […]-[…] (SEQ ID NO: 2) with phosphorothioate backbone] was synthesized (Dharmacon, Inc., Lafayette, Colo.), which has been shown previously to be a potent TLR7 and TLR8 agonist. This RNA molecule was diluted to 2.5 μM in serum-free RPMI, and mouse anti-human single stranded DNA monoclonal antibody (MAB3034, Millipore, Inc., Billerica, Mass.), which also cross-reacts with RNA, was added at a 1:25 dilution or at 1 ug/ml. The resulting “RNA-Ig” stimulus was incubated at room temperature for 15-30 minutes before adding to cells. PBMC were incubated with the various TLR agonists for 20 hours at 37° C., 5% CO2. Cell culture supernatants were collected, and levels of various human cytokines were assessed as indicated by standard ELISA procedure according to the manufacturer's recommended protocol (BD Biosciences, Inc., San Diego, Calif.). In a subsequent assay (Table 6) the ability of ER-899742 to block stimulation of normal PBMC by various TLR7/8 ligands, but not DNA-mediated activation of TLR9, was examined. In this assay cells were plated at 1×10^5 cells/well in 100 ul in 96-well plates.

[2] = biological target: T1, mouse TLR7 (Mus musculus, UniProt P58681); experiment: Short-term in vivo (STIV) assay: oral dosing, R848 s.c., plasma IL-6; design: female BALB/c mice (Jackson Labs, Bar Harbor, Me.) were dosed by oral gavage; tissue Jackson Labs; host or cells: living female BALB/c mice; plasma IL-6 after s.c. R848
T1 sequence (P58681 27-1050): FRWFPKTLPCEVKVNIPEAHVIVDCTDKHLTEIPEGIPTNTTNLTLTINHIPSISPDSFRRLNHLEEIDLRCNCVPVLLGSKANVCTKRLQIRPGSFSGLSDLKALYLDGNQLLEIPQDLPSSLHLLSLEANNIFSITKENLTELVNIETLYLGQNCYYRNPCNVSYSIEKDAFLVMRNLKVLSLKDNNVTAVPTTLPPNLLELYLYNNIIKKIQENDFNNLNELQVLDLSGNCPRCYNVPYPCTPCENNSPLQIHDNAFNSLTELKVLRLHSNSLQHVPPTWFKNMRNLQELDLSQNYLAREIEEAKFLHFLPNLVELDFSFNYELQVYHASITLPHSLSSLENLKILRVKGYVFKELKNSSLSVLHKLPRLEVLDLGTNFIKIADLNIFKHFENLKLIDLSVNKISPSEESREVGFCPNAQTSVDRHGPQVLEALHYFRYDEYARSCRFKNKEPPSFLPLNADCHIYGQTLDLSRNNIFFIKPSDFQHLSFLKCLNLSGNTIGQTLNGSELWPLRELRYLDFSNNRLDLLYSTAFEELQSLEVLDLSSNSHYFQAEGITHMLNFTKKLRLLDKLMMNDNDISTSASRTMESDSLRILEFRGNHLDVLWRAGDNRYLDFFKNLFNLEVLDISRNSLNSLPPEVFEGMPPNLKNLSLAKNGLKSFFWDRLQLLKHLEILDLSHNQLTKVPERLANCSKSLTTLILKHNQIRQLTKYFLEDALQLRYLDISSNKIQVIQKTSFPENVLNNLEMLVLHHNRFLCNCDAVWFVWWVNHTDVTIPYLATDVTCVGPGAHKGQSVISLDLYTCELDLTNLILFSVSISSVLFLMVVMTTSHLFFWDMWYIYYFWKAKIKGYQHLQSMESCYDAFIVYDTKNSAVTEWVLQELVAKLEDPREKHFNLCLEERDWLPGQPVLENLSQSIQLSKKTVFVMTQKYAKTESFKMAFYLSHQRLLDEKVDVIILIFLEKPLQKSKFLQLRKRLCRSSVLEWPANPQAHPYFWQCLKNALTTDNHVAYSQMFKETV
Protocol: Figure Legend: Female BALB/c mice were dosed by oral gavage with Vehicle alone (0.5% aqueous methyl-cellulose) or compound formulated in Vehicle at 33 mg/kg, 100 mg/kg or 300 mg/kg. […] (FIG. 1A).
Short-term in vivo (STIV) assay: To assess compound potency in vivo against mouse TLR7, a short-term in vivo (STIV) assay was utilized. Briefly, mice were orally dosed with compounds and at various time points afterwards were injected subcutaneously with agonist R848 to stimulate TLR7. The plasma IL-6 level following R848 stimulation was then measured by ELISA to assess compound potency and duration-of-action.
Short-term in vivo (STIV) assay. Six to eight week old female BALB/c mice (Jackson Labs, Bar Harbor, Me.) were dosed by oral gavage in 200 ul volume with antagonist compounds formulated in 0.5% aqueous methyl-cellulose (Sigma, St. Louis, Mo.). At various time points afterwards, mice were injected subcutaneously (s.c.) in 100 ul volume with 15 ug R848 (Resiquimod; GLSynthesis, Worcester, Mass.) to stimulate TLR7.

Row | Structure (SMILES) | IC50 [1] [nM] | also measured
1 | CC1CCC(NCC2CN(c3ccc(C#N)c4ncccc34)CC(C)O2)CC1 (mixture of isomers) [ER-887442] | 47 | –
2 | N#Cc1ccc(N2CCOC(CCl)C2)c2cccnc12 (centres unmarked) [ER-879570] | 113 | –
3 | CC(=O)NC[C@H]1CN(c2ccc(C#N)c3ncccc23)C[C@@H](C)O1 [ER-879689] | 1240 | –
4 | C[C@@H]1CN(c2ccc(C#N)c3ncccc23)C[C@H](CN)O1 [ER-884884] | 204 | –
5 | CCOCC1CN(c2ccc(C#N)c3ncccc23)CC(C)O1 (centres unmarked) [ER-885807] | 331 | –
6 | CCC[C@H]1CN(c2ccc(C#N)c3ncccc23)C[C@@H](C)O1 [ER-886131] | 98 | –
7 | C[C@H]1CN(c2ccc(C#N)c3ncccc23)C[C@@H](CF)O1 [ER-886133] | 127 | –
8 | C[C@H]1CN(c2ccc(C#N)c3ncccc23)C[C@@H](CCl)O1 [ER-886134] | 277 | –
9 | CC(C(=O)NC[C@H]1CN(c2ccc(C#N)c3ncccc23)C[C@@H](C)O1)c1ccccc1 (some centres unmarked) [ER-886360] | 486 | –
10 | Cc1ccc(OC[C@H]2CN(c3ccc(C#N)c4ncccc34)C[C@@H](C)O2)cc1 [ER-886516] | 56 | –
11 | C[C@@H]1CN(c2ccc(C#N)c3ncccc23)C[C@H](COc2ccc(F)c(F)c2)O1 [ER-886605] | 21 | –
12 | C[C@@H]1CN(c2ccc(C#N)c3ncccc23)C[C@H](COc2cccc(F)c2)O1 [ER-886606] | 15 | –
13 | Cc1nc2cc(NC[C@H]3CN(c4ccc(C#N)c5ncccc45)C[C@@H](C)O3)ccc2n1C [ER-886608] | 1 | –
14 | CCn1c(C)nc2cc(NC[C@H]3CN(c4ccc(C#N)c5ncccc45)C[C@@H](C)O3)ccc21 [ER-886609] | 4 | –
15 | C[C@@H]1CN(c2ccc(C#N)c3ncccc23)C[C@H](CNC2CCCCC2)O1 [ER-886611] | – | % Suppression vs. Vehicle ([2]; 3 h, 33 mg/kg): 90%; % Suppression vs. Vehicle ([2]; 3 h, 100 mg/kg): 100%; % Suppression vs. Vehicle ([2]; 3 h after oral dose, 11 mg/kg): 53%; % Suppression vs. Vehicle ([2]; 6 h, 11 mg/kg): 0%; % Suppression vs. Vehicle ([2]; 6 h, 33 mg/kg): 90%; % Suppression vs. Vehicle ([2]; 6 h, 100 mg/kg): 100%; % Suppression vs. Vehicle ([2]; 19 h, 11 mg/kg): 19%; % Suppression vs. Vehicle ([2]; 19 h, 33 mg/kg): 0%; % Suppression vs. Vehicle ([2]; 19 h, 100 mg/kg): 100%
